Consider 20 compounds from patent US20250092065A1, “2-(INDAZOL-5-YL)-6-(PIPERIDIN-4-YL)-1,7-NAPHTHYRIDINE DERIVATIVES AND RELATED COMPOUNDS AS MODULATORS FOR SPLICING NUCLEIC ACIDS AND FOR THE TREATMENT OF PROLIFERATIVE DISEASES” (REMIX THERAPEUTICS INC., priority 2022, published 2025).

One may read the AC50 as the concentration giving half of the maximal activity seen. In general, IC50 refers to the concentration needed to halve the response being measured.

Like-named read-outs stand apart in the source and are kept apart here.

The test system of data set [1] is K562 cells. Nature of the data set: Cell Titer Glo 2.0 cell viability (toxicity) assay, K562. Conditions: 500 cells/well, 72 hours.
The subject of data set [2] is HTT mRNA. Nature of the data set: RT-qPCR splicing assay, HTT mRNA canonical (CJ) and alternative (AJ) junction. Conditions: Homo sapiens; for AC50: HTT alternative junction mRNA, read-out: HTT AJ (increase in AJ mRNA, AC50). Format: cell-based, human. In a few lines:
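Both isoforms, CJ and AJ, read by qPCR from crude lysates of treated A673 or K562 cells; 24 h, 37 °C, maximum 10 uM. Normalization: housekeeper ΔCt, then DMSO ΔΔCt.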

Data set [3] relates to Target C. Nature of the data set: RT-qPCR canonical junction panel assay, Target C mRNA. Conditions: Table 4, read-out: Target C IC50 (decrease in CJ mRNA levels). It is filed as cell-based. The gist of the method:
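IC50 is the concentration giving 50% CJ decrease, from a 4-parameter logistic fit of percent response; response derived from ΔΔCt against housekeeper and DMSO over a fixed ΔCt window, with canonical exon-junction qPCR in compound-treated K562 or A673 cells.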
On the technique in general: Quantitative PCR measures a nucleic acid by following its amplification.

[4] abbreviates: HTT canonical junction mRNA, RT-qPCR, read-out: HTT CJ (decrease in CJ mRNA levels, IC50).
[5] abbreviates: canonical junction qPCR panel, Table 4, read-out: HTT IC50 (decrease in CJ mRNA levels).

Regarding `Cc1nc2c(C)c(O)c(-c3ccc4nc(N5CC[C@H](NC6CCC6)C5)ccc4n3)cc2o1` [Compound 237], the “Effect of Exemplary Compounds on Cell Viability, K562” value (from here on “Effect of Exemplary Compounds”) in data set [1] is recorded as “B (B represents 100-1000 nM)”. Moreover, in data set [2] (RT-qPCR), the AC50 is below 100 nM. In addition, the IC50 in data set [2] (setting [4]), in data set [2] (setting [5]) and in data set [3] was below 100 nM throughout.

In the case of `Cc1cc(-c2ccc3nc(N4CCC(NC(C)(C)C)C4)ccc3n2)nc2cn(C)nc12` (stereo not shown) [Compound 248], in data set [1], the “Effect of Exemplary Compounds” value was “C (C represents 1000-9999 nM)”. Further, the AC50 in data set [2] (RT-qPCR) fell in the range of 100 to 1000 nM. Further, the IC50 in data set [2] (setting [4]), in data set [2] (setting [5]) and in data set [3] was 1000 to 10000 nM each time.

Consider `Cc1c(O)c(-c2ccc3nc(N4CC[C@@H](NC(C)(C)C)C4)ccc3n2)cc2cn(C)nc12` [Compound 249], for which the “Effect of Exemplary Compounds” value in data set [1] is “A (A represents <100 nM)”. The AC50 in data set [2] (RT-qPCR) was below 100 nM. Besides, the IC50 in data set [2] (setting [4]), in data set [2] (setting [5]) and in data set [3] was below 100 nM throughout.

Regarding `Cc1c(O)c(-c2ccc3nc(N4CC[C@H](NC(C)(C)C)C4)ccc3n2)cc2cn(C)nc12` [Compound 250], the “Effect of Exemplary Compounds” value in data set [1] is reported as “B (B represents 100-1000 nM)”. For the same compound, the half-maximal activity concentration (AC50) in data set [2] (RT-qPCR) was below 100 nM. Besides, the IC50 in data set [2] (setting [4]), in data set [2] (setting [5]) and in data set [3] was below 100 nM in each case.

Regarding `COc1c(-c2ccc3nc(N4CCC(NC(C)(C)C)C4)ccc3n2)cc2c[nH]nc2c1C` (stereo not shown) [Compound 251], in data set [1], the “Effect of Exemplary Compounds” value is “B (B represents 100-1000 nM)”. Moreover, the AC50 in data set [2] (RT-qPCR) was above 10000 nM. The IC50 in data set [2] (setting [4]), in data set [2] (setting [5]) and in data set [3] was above 10000 nM each time.

For `Cc1c(O)c(-c2ccc3nc(N4CCC(NCC5CC5)C4)ccc3n2)cc2cn(C)nc12` (stereo not shown) [Compound 284, 5-(6-{3-[(cyclopropylmethyl)amino]pyrrolidin-1-yl}-1,5-naphthyridin-2-yl)-2,7-dimethylindazol-6-ol], in data set [1], the “Effect of Exemplary Compounds” value is on record as “B (B represents 100-1000 nM)”. Moreover, the concentration at half-maximal activity (AC50) in data set [2] (RT-qPCR) was below 100 nM. The IC50 in data set [2] (setting [4]) was below 100 nM; in data set [2] (setting [5]), below 100 nM; in data set [3], 100 to 1000 nM.

Consider `Cc1c(O)c(-c2ccc3nc(N4CCC(NC5CCC5)C4)ccc3n2)cc2cn(C)nc12` (stereo not shown) [Compound 288, 5-{6-[3-(cyclobutylamino)pyrrolidin-1-yl]-1,5-naphthyridin-2-yl}-2,7-dimethylindazol-6-ol], for which the “Effect of Exemplary Compounds” value in data set [1] is “B (B represents 100-1000 nM)”. For the same compound, the AC50 in data set [2] (RT-qPCR) is below 100 nM. Moreover, the concentration for half-maximal inhibition (IC50) in data set [2] (setting [4]) is below 100 nM; in data set [2] (setting [5]) it was below 100 nM; in data set [3] it was 100 to 1000 nM.

For `Cc1nc2c(F)c(O)c(-c3ccc4nc(N5CCC(NC6CCC6)C5)ccc4n3)cc2o1` (stereo not shown) [Compound 293, 6-{6-[3-(cyclobutylamino)pyrrolidin-1-yl]-1,5-naphthyridin-2-yl}-4-fluoro-2-methyl-1,3-benzoxazol-5-ol], in data set [1], the “Effect of Exemplary Compounds” value was “A (A represents <100 nM)”. Moreover, the AC50 in data set [2] (RT-qPCR) was below 100 nM. For the same compound, the IC50 in data set [2] (setting [4]), in data set [2] (setting [5]) and in data set [3] was below 100 nM throughout.

In the case of `Cn1cc2cc(-c3ccc4nc(N5CCC(NC67CC(C6)C7)C5)ccc4n3)c(O)cc2n1` (stereo not shown) [Compound 297, 5-[6-(3-{bicyclo[1.1.1]pentan-1-ylamino}pyrrolidin-1-yl)-1,5-naphthyridin-2-yl]-2-methylindazol-6-ol], in data set [1], the “Effect of Exemplary Compounds” value is given as “D (D represents greater than 10 μM in K562 cells)”. The AC50 in data set [2] (RT-qPCR) was in the range of 1000 to 10000 nM. In addition, the IC50 in data set [2] (setting [4]) is 1000 to 10000 nM; in data set [2] (setting [5]), 1000 to 10000 nM; in data set [3] it was above 10000 nM.

`Cn1cc2nc(-c3ccc4nc(N5CCC(NC(C)(C)C)C5)ccc4n3)c(O)cc2n1` (stereo not shown) [Compound 298, 5-{6-[3-(tert-butylamino)pyrrolidin-1-yl]-1,5-naphthyridin-2-yl}-2-methylpyrazolo[4,3-b]pyridin-6-ol]: the “Effect of Exemplary Compounds” value in data set [1] is recorded as “B (B represents 100-1000 nM)”. Besides, the AC50 in data set [2] (RT-qPCR) was below 100 nM. The half-inhibitory concentration (IC50) is below 100 nM in data set [2] (setting [4]), below 100 nM in data set [2] (setting [5]) and 100 to 1000 nM in data set [3].

`Cn1cc2cc(-c3ccc4nc(N5CC[C@H](N[C@H]6C[C@@H](F)C6)C5)ccc4n3)c(O)cc2n1` [Compound 299, 2-methyl-5-{6-[(3S)-3-{[(1s,3s)-3-fluorocyclobutyl]amino}pyrrolidin-1-yl]-1,5-naphthyridin-2-yl}indazol-6-ol]: the “Effect of Exemplary Compounds” value in data set [1] is reported as “B (B represents 100-1000 nM)”. For the same compound, the AC50 in data set [2] (RT-qPCR) is 100 to 1000 nM. Also, the IC50 is below 100 nM in data set [2] (setting [4]), below 100 nM in data set [2] (setting [5]) and 1000 to 10000 nM in data set [3].

With `Cc1c(O)c(-c2ccc3nc(N4CCC(NC5COC5)C4)ccc3n2)cc2cn(C)nc12` (stereo not shown) [Compound 302, 2,7-dimethyl-5-{6-[3-(oxetan-3-ylamino)pyrrolidin-1-yl]-1,5-naphthyridin-2-yl}Indazol-6-ol], the “Effect of Exemplary Compounds” value in data set [1] is listed as “C (C represents 1000-9999 nM)”. Besides, the AC50 in data set [2] (RT-qPCR) is 100 to 1000 nM. For the same compound, the results for the IC50 in data set [2] (setting [4]), in data set [2] (setting [5]) and in data set [3] were 100 to 1000 nM, 100 to 1000 nM and 1000 to 10000 nM, respectively.

Turning to `Cc1nc2c(C)c(O)c(-c3ccc4nc(N5CCC(NC6(C)CC6)C5)ccc4n3)cc2o1` (stereo not shown) [Compound 309, 2,4-dimethyl-6-(6-{3-[(1-methylcyclopropyl)amino]pyrrolidin-1-yl}-1,5-naphthyridin-2-yl)-1,3-benzoxazol-5-ol], the “Effect of Exemplary Compounds” value in data set [1] is “B (B represents 100-1000 nM)”. Also, the AC50 in data set [2] (RT-qPCR) is below 100 nM. The IC50 in data set [2] (setting [4]), in data set [2] (setting [5]) and in data set [3] was below 100 nM in each case.

`Cc1nc2c(C)c(O)c(-c3ccc4nc(N5CCC(NC(C)C)C5)ccc4n3)cc2o1` (stereo not shown) [Compound 312, 6-{6-[3-(isopropylamino)pyrrolidin-1-yl]-1,5-naphthyridin-2-yl}-2,4-dimethyl-1,3-benzoxazol-5-ol]: the “Effect of Exemplary Compounds” value in data set [1] is listed as “A (A represents <100 nM)”. For the same compound, the AC50 in data set [2] (RT-qPCR) is below 100 nM. The IC50 in data set [2] (setting [4]), in data set [2] (setting [5]) and in data set [3] was below 100 nM throughout.

With `Cn1cc2cc(-c3ccc4nc(N5CCC(NC6CCC6)C5)ccc4n3)c(O)c(F)c2n1` (stereo not shown) [Compound 315, 5-{6-[3-(cyclobutylamino)pyrrolidin-1-yl]-1,5-naphthyridin-2-yl}-7-fluoro-2-methylindazol-6-ol], in data set [1], the “Effect of Exemplary Compounds” value is reported as “A (A represents <100 nM)”. In addition, in data set [2] (RT-qPCR), the AC50 was below 100 nM. For the same compound, the IC50 in data set [2] (setting [4]), in data set [2] (setting [5]) and in data set [3] was below 100 nM throughout.

On to `Cc1c(O)c(-c2ccc3nc(N4CCC(NC(C)C)C4)ccc3n2)cc2cn(C)nc12` (stereo not shown) [Compound 318, 5-{6-[3-(isopropylamino)pyrrolidin-1-yl]-1,5-naphthyridin-2-yl}-2,7-dimethylindazol-6-ol], for which the “Effect of Exemplary Compounds” value in data set [1] is listed as “A (A represents <100 nM)”. Moreover, the AC50 in data set [2] (RT-qPCR) was below 100 nM. Moreover, the IC50 in data set [2] (setting [4]), in data set [2] (setting [5]) and in data set [3] was below 100 nM in each case.

As for `Cc1c(O)c(-c2ccc3nc(N4CC[C@H](NC(C)C)C4)ccc3n2)cc2cn(C)nc12` [Compound 320], the “Effect of Exemplary Compounds” value in data set [1] was “B (B represents 100-1000 nM)”. In addition, the AC50 in data set [2] (RT-qPCR) was below 100 nM. Moreover, the IC50 in data set [2] (setting [4]), in data set [2] (setting [5]) and in data set [3] was below 100 nM in each case.

For the compound `Cc1nc2c(F)c(O)c(-c3ccc4nc(N5CCC(NC6(C)CC6)C5)ccc4n3)cc2o1` (stereo not shown) [Compound 325, 4-fluoro-2-methyl-6-(6-{3-[(1-methylcyclopropyl)amino]pyrrolidin-1-yl}-1,5-naphthyridin-2-yl)-1,3-benzoxazol-5-ol], in data set [1], the “Effect of Exemplary Compounds” value was “B (B represents 100-1000 nM)”. Also, in data set [2] (RT-qPCR), the half-maximal activity concentration (AC50) was below 100 nM. The IC50 in data set [2] (setting [4]), in data set [2] (setting [5]) and in data set [3] was below 100 nM in each case.

Turning to `Cc1nc2c(F)c(O)c(-c3ccc4nc(N5CCC(NC(C)C)C5)ccc4n3)cc2o1` (stereo not shown) [Compound 328, 4-fluoro-6-{6-[3-(isopropylamino)pyrrolidin-1-yl]-1,5-naphthyridin-2-yl}-2-methyl-1,3-benzoxazol-5-ol], the “Effect of Exemplary Compounds” value in data set [1] is listed as “A (A represents <100 nM)”. For the same compound, the AC50 in data set [2] (RT-qPCR) is below 100 nM. Further, the IC50 in data set [2] (setting [4]), in data set [2] (setting [5]) and in data set [3] was below 100 nM in each case.

Take `CN[C@@H]1CCN(c2ccc3nc(-c4cc(F)c5nc(C)cn5c4)ncc3n2)C1` [Compound 331, (3R)-1-(2-{8-fluoro-2-methylimidazo[1,2-a]pyridin-6-yl}pyrido[3,2-d]pyrimidin-6-yl)-N-methylpyrrolidin-3-amine]: the “Effect of Exemplary Compounds” value in data set [1] is on record as “B (B represents 100-1000 nM)”. For the same compound, the AC50 in data set [2] (RT-qPCR) lay in the range of 100 to 1000 nM. Also, the IC50 in data set [2] (setting [4]), in data set [2] (setting [5]) and in data set [3] was 100 to 1000 nM each time.
